{
  "source": "patent US6433012B1",
  "about": "“Method for inhibiting inflammatory disease” (Large Scale Biology Corp., priority 1998, dated 2002)",
  "key": {"[1]": {"test_system": "TNF-α mRNA in murine macrophage PU5-1.8 cell line", "assay": "TNF-α mRNA in LPS-stimulated macrophages (Northern blot)", "type": "cell-based", "protocol": "The murine macrophage PU5-1.8 cell line was purchased from the American Type Culture Collection (ATCC, Rockville, Md.). Cells were grown in DMEM medium supplemented with […], 0.1 mM nonessential amino acids, 2 mM glutamine and 5% fetal bovine serum (Life Technologies, Staten Island, N.Y.). Cells were maintained in a humidified atmosphere of 5% CO2-95% air at 37° C. Cells were passages twice weekly by firmly tapping the side of the flask to dislodge the adherent cells. Both nonadherent and adherent cells were passages. Exponentially growing cells were seeded at 5×10 ^5/mL, 4mL per 60-mm dish 24 h prior to the experiment. Test compounds were delivered in 1 mL volumes of the medium added to each dish at the start of the experiment. All dishes were incubated at 37° C. in 5% CO2-95% air for 3 h.\nTotal RNA was isolated by the guanidinium-cesium chloride method as described in N. S. Waleh, J. Gallo, T. D. Grant, B. J. Murphy, R. H. Kramer and R. M. Sutherland. (1994) “Selective downregulation of integrin receptors in spheroids of squamous cell carcinoma” Cancer Res., 54:838-843. Five to 10 μg of total RNA was electrophoresed in 1% agarose gels containing 6% formaldehyde. Following electrophoresis, gels were stained with ethidium bromide to visualize the positions of 28S and 18S RNA. The RNAs were then transferred to nylon membranes (Amersham Hybond N) by capillary blotting and fixed to the filter by exposure to UV light. The blots were probed with ^32P-labeled cDNA sequences of human TNF-α obtained from the American Type Culture Collection (ATCC). The TNF-α cDNA was a 1.1 kb PstI fragment of plasmid pE4 in E. coli MM294 (ATCC 39894). Hybridizations were carried out at 42° C. in 50% formamide, 5×SSC, 5×Denhardt's solution, 0.1% SDS, and 0.3 mg/mL salmon sperm DNA. Filters were washed by 1×SSC, 0.1% SDS, twice at room temperature for 15 min and once at 55° C. in 0.1×SSC, 0.1% SDS for 1 hr. Filters were exposed to X-ray film at −70° C. using an intensifying screen (Coronex Hi-Plus).\nHybridized bands were quantified by analyzing the images obtained by using a video densitometer (Applied Imaging Corporation, Santa Clara, Calif.). Film densities were calibrated using an optical-density wedge."}, "[2]": {"test_system": "MDA MB-231 human breast carcinoma xenografts", "assay": "Tumor growth delay, MDA MB-231 xenografts", "type": "in vivo, Swiss NCr nude (nu/nu) female mice", "conditions": "oral treatment, 6 weeks of therapy", "protocol": "Intraperitoneally administered cyclophosphamide (CTX; Cytoxan; 150 mg/kg), which is used in some regimens for adjuvant breast cancer therapy was used as a positive control."}, "[3]": {"assay": "Oral (gavage) toxicity in nude mice", "type": "in vivo", "conditions": "doses as high as 1,000 mg/kg-day for 60 to 180 days"}, "[4]": {"test_system": "MDA MB-231 and MCF-7 cells", "assay": "Nuclear morphology of breast carcinoma cells", "type": "cell-based, human", "conditions": "1 μ for 48 h"}, "MCF-7 cell cultures": {"test_system": "MCF-7 cell cultures", "assay": "Cytotoxicity in vitro (reduction of cell number)", "type": "cell-based", "conditions": "Homo sapiens, MCF7; treated for 48 h; read-out: IC50 (50% reduction of cell number relative to vehicle-treated control)"}, "[5]": {"test_system": "rhodamine-labeled tubulin", "assay": "Cell-free fluorescence assay of microtubule assembly", "type": "biochemical", "conditions": "15 μM tubulin, GTP", "text": "Microtubules are major cytoskeletal components composed of α- and β-tubulin heterodimers bound with GTP. […] The effect of the drug on microtubule assembly was investigated directly by using a cell-free fluorescence assay involving the visualization of microtubule formation from rhodamine-labeled tubulin and microtubule seeds in the presence of GTP."}, "[6]": {"assay": "Bone marrow toxicity, histological examination", "type": "in vivo", "conditions": "500 mg/kg-day by gavage for 4 weeks", "protocol": "Swiss Webster mice were exposed to the drug at 500 mg/kg-day by gavage for a period of 4 weeks, and bone marrow was examined histologically."}, "[7]": {"test_system": "R3230Ac rat mammary carcinoma", "assay": "Dorsal skin-fold window chamber assay", "type": "in vivo, Fischer 344 rats", "text": "Details of the design and the surgical technique used for the rat dorsal skin-fold window chamber assay have been described elsewhere (Pappenfuss et al., Microvasc. Res. 18:311-318 (1979)). Briefly, the anatomical midline of the dorsal skin flap of an anesthetized rat was sutured to a pair of C-clamps and a skin-fold was retracted from the body surface by hanging the C-clamp on a stage. A circle of 1 cm of skin on each side of the skin-fold was surgically removed leaving two layers of fascia containing a few microvessels. After a pair of window frames was mounted, a piece of a R3230Ac rat mammary carcinoma (about 0.5 mm^3) from a donor rat was implanted onto the fascia in the window and the chamber was sealed with glass cover slips. On the fourth postoperative day, all tumor-containing windows were evaluated using an intravital microscope. The viability of the tumor implants, vasculature morphology, and blood flow in each window were crudely scored with 1-3 points assigned to each category. Only those windows with more than 6 points on this scale were included for further study. […] Tumor-window-bearing animals were randomly divided into treated and control groups that were stratified by the window scores. […] On day 12, the tumor windows were evaluated for the effect of the drug on tumor growth and vascularization. Images of whole tumors and tumor vasculature were obtained from four peripheral tumor areas, three to four central tumor areas, and from four areas in the surrounding granulating tissue, as described above. Again, measurements of various image parameters were made by an investigator who was unaware of the treatment protocol. Using the image analysis software, the cumulative length of all vessels in focus in each image was measured. Vascular length densities were calculated by dividing the total vessel length in a frame by the area of the frame. The diameters of all vessels in each image at high magnification were also measured and averaged.\nAll data were reported as means +/− the SEM for each group. The statistical significance of differences between treated and control groups was determined by using an unpaired t-test or the Mann-Whitney U-test. Statistically significant differences were defined as having a p<0.05."}, "[8]": {"test_system": "MCF-7 human breast carcinoma cells", "assay": "Chromosome condensation / prometaphase arrest", "type": "cell-based", "conditions": "1 μM for 24 h"}, "MCF-7 cells": {"test_system": "MCF-7 cells", "assay": "Flow cytometry, cell-cycle progression", "type": "cell-based, human", "conditions": "1 μM, within 24 h", "text": "Such arrested cells eventually undergo cell death which can occur by an apoptotic mechanism."}, "MDA MB-231 cell cultures": {"test_system": "MDA MB-231 cell cultures", "assay": "Cytotoxicity in vitro (reduction of cell number)", "type": "cell-based", "conditions": "Homo sapiens, treated for 48 h, read-out: IC50 (50% reduction of cell number relative to vehicle-treated control)"}, "[9]": {"conditions": "oral, postoperative days 5 to 11, no significant difference to controls"}},
  "note": "Entries after “also recorded” stand apart in the source; their conditions may differ.",
  "data": [
    {"smiles": "COC(=O)c1cc(I)c(Oc2ccc(OC)cc2)c(I)c1", "note": "[BTO-956, methyl-3,5-diiodo-4-(4′-methoxyphenoxy)benzoate]", "values": [
      {"measurement": "inhibition of TNF-α mRNA accumulation", "setting": "[1]; 10 μM added to LPS (100 ng/mL) treated cultures, 3 h", "value": 61, "unit": "%"},
      {"measurement": "effect on TNF-α mRNA expression, compound only", "setting": "[1]; 10 μM, without LPS, 3 h", "value": "no effect"},
      {"measurement": "total RNA integrity", "setting": "[1]; cells treated with different concentrations", "value": "intact"},
      {"measurement": "amounts of TNF-α mRNA, concentration-effect relationship", "setting": "[1]; various concentrations with LPS for 3 h", "value": "declined with the increasing concentrations"},
      {"measurement": "growth of tumors (relative mean tumor volume)", "setting": "[2]", "value": "suppressed"},
      {"measurement": "gross pathology", "setting": "[3]", "value": "No other gross pathology"},
      {"measurement": "liver and kidney weights", "setting": "[3]", "value": "only slight and transient increases"},
      {"measurement": "nuclear morphology", "setting": "[4]", "value": "a significant number had condensed or fragmented nuclei"},
      {"measurement": "IC50", "setting": "MCF-7 cell cultures", "value": 600, "unit": "nM"},
      {"measurement": "microtubule formation", "setting": "[5]; compound 1 μM", "value": "much shorter structures"},
      {"measurement": "microtubule formation", "setting": "[5]; compound 10 μM", "value": "The same effect was observed"},
      {"measurement": "bone marrow profiles", "setting": "[6]", "value": "did not differ from those of control animals"},
      {"measurement": "hematopoietic abnormalities", "setting": "[6]", "value": "no hematopoietic abnormalities"},
      {"measurement": "reduction of tumor areas compared with controls", "setting": "[7]; oral, postoperative days 5 to 11", "value": "more than 50%"},
      {"measurement": "vascular diameter in central tumor areas", "setting": "[7]; [9]", "value": "35.84±9.63", "unit": "μm"},
      {"measurement": "vascular diameter in peripheral tumor areas", "setting": "[7]; [9]", "value": "32.19±4.46", "unit": "μm"},
      {"measurement": "vascular diameter in surrounding areas", "setting": "[7]; [9]", "value": "21.52±3.33", "unit": "μm"},
      {"measurement": "vascular length density in central tumor areas", "setting": "[7]; [9]", "value": "3.26±0.81", "unit": "mm/mm^2"},
      {"measurement": "vascular length density in surrounding granulating tissue", "setting": "[7]; [9]", "value": "8.71±1.05", "unit": "mm/^2"},
      {"measurement": "body weight loss or behavioral changes / toxic effects", "setting": "[7]; tumor-bearing rats, oral 500 mg/kg, up to seven days, 500 mg/kg", "value": "No significant body weight loss or behavioral changes; also recorded: No serious toxic effects"},
      {"measurement": "chromosome condensation (prometaphase arrest)", "setting": "[8]", "value": "A large fraction of these cells showed chromosome condensation characteristic of a prometaphase arrest"},
      {"measurement": "cells arrested at G2/M", "setting": "MCF-7 cells", "value": "at least 60%"},
      {"measurement": "IC50", "setting": "MDA MB-231 cell cultures", "value": 300, "unit": "nM"}
    ]}
  ]
}
